Laboratory results from patent publication US4143134A, “Halo-phosphonopeptides” (Hoffmann-La Roche Inc., priority 1976, dated 1979).
In brackets after ≈: the same amount, converted by molar mass.

Assays:
Type in all cases: cell-based
[1] = test system: Haemophilus influenzae NCTC 4560; assay: in vitro M.I.C. test against Haemophilus influenzae NCTC 4560; conditions: NCTC4560, read-out: M.I.C. (minimum inhibitory concentration)
Text: (§1) The following Table illustrates the minimum inhibitory concentration (M.I.C.) in μg/ml of a representative peptide derivative provided by this invention, namely (1R)-1-(L-3-fluoroalanylamino)-ethylphosphonic acid, in an in vitro test against various organisms.

[2] = test system: Escherichia coli C.1.5 P.R.; assay: in vitro M.I.C. test against Escherichia coli C.1.5 P.R.; conditions: read-out: M.I.C. (minimum inhibitory concentration)
Text: as §1

[3] = test system: Escherichia coli NCIB 8879 P.S.; assay: in vitro M.I.C. test against Escherichia coli NCIB 8879 P.S.; conditions: NCIB8879, read-out: M.I.C. (minimum inhibitory concentration)
Text: as §1

[4] = test system: Escherichia coli NCTC 10418 P.S.; assay: in vitro M.I.C. test against Escherichia coli NCTC 10418 P.S.; conditions: NCTC10418, read-out: M.I.C. (minimum inhibitory concentration)
Text: as §1

[5] = test system: Klebsiella aerogenes Type 33 Ba; assay: in vitro M.I.C. test against Klebsiella aerogenes Type 33 Ba; conditions: TYPE33BA, read-out: M.I.C. (minimum inhibitory concentration)
Text: as §1

[6] = test system: Klebsiella aerogenes O-G KAl; assay: in vitro M.I.C. test against Klebsiella aerogenes O-G KAl; conditions: read-out: M.I.C. (minimum inhibitory concentration)
Text: as §1

Structure (SMILES): C[C@H](NC(=O)[C@@H](N)CF)P(=O)(O)O [(1R)-1-(L-3-fluoroalanylamino)-ethylphosphonic acid]
- MIC [1]: 8 µg/mL (≈ 37.4 µM)
- MIC [2]: 4 µg/mL (≈ 18.7 µM)
- MIC [3]: 0.5 µg/mL (≈ 2.33 µM)
- MIC [4]: 0.25 µg/mL (≈ 1.17 µM)
- MIC [5]: 1 µg/mL (≈ 4.67 µM)
- MIC [6]: 4 µg/mL (≈ 18.7 µM)
